Laboratory results from article PMC7244308 (Science Advances, 2020).
Like-named read-outs stand apart in the source and are kept apart here.

Key:
ILY = ILY (Streptococcus intermedius, UniProt Q9LCB8); assay: biochemical; assay type: binding
SLO [1] = molecular target: T1, SLO (Streptococcus pyogenes serotype M1, UniProt P0C0I3); assay: biochemical; assay type: binding
PFO = PFO (Clostridium perfringens, UniProt P0C2E9); assay: biochemical; assay type: binding
SLY = SLY (Streptococcus suis, UniProt Q55996); assay type: binding
SLY D4 = SLY D4 (Streptococcus suis, UniProt Q55996); assay type: binding
Ply = Ply (Streptococcus pneumoniae, UniProt Q7ZAK5); assay: biochemical; assay type: binding
Ply, sequence (Q7ZAK5 whole entry, looked up): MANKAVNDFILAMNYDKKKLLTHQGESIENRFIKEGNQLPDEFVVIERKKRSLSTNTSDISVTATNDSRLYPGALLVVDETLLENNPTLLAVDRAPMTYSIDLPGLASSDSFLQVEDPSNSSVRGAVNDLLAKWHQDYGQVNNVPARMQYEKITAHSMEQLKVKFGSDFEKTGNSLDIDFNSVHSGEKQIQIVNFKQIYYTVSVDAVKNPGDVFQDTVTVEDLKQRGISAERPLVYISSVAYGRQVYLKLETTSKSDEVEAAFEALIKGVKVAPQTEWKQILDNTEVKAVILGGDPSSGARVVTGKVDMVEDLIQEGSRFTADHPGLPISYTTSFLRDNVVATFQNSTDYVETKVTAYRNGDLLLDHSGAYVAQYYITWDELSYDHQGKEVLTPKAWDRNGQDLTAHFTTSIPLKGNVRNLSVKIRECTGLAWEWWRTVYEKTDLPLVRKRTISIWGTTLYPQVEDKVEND

[2] = molecular target: recombinant human I-domain (Homo sapiens, UniProt P11215); assay type: binding
recombinant human I-domain, sequence (P11215 150-328): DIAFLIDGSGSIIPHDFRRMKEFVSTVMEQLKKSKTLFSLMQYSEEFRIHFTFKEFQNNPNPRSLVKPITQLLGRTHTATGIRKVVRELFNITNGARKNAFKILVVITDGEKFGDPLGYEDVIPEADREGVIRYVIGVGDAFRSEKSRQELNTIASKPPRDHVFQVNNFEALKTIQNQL

LLO = LLO (Listeria monocytogenes serovar 1/2a, UniProt P13128); assay type: binding
LLO, sequence (P13128 25-529 limits assumed): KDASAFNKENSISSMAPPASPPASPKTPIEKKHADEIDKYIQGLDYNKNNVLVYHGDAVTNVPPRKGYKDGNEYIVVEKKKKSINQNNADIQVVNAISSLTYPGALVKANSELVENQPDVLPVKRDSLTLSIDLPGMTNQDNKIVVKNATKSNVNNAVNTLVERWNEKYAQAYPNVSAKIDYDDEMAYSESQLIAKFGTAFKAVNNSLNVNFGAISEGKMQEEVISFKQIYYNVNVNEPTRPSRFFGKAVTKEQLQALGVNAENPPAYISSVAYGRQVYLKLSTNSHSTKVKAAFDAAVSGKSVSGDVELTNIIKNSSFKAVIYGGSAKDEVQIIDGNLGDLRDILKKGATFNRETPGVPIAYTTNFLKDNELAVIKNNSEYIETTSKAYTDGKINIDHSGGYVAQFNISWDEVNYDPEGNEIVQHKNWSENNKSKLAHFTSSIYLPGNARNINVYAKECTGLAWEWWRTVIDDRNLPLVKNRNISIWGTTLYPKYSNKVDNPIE

SLO [3] = molecular target: T1, SLO; assay type: cell-based

T1 sequence (P0C0I3 34-571 limits assumed): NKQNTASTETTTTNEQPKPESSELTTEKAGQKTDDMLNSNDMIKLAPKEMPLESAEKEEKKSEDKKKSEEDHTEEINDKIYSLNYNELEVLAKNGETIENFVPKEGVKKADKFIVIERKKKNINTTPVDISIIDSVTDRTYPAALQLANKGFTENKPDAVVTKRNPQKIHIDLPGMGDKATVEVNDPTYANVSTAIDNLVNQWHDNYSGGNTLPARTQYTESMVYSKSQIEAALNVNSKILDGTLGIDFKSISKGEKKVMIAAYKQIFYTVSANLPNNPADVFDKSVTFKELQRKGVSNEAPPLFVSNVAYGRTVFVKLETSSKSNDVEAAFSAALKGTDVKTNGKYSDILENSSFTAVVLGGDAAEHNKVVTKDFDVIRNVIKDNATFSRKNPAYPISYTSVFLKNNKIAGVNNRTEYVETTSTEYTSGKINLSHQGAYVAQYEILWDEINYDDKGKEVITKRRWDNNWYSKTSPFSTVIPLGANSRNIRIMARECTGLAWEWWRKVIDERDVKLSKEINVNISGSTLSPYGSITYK
PFO, sequence (P0C2E9 29-500 limits assumed): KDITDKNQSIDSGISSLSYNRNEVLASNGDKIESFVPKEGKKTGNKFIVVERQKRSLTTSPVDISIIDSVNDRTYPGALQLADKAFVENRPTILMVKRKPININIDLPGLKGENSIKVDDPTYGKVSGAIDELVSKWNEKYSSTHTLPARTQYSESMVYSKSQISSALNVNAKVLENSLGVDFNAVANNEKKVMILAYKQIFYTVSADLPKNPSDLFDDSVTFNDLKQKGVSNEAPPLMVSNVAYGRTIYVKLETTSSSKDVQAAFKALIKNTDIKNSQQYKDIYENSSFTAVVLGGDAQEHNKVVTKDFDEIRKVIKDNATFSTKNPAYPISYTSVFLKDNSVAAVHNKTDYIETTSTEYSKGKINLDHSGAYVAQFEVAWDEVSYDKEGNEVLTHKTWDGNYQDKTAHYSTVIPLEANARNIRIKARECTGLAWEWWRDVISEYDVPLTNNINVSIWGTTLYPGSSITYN

Compound `CC(=O)N[C@H]1[C@H](O[C@H]2[C@@H](O)[C@@H](CO)O[C@@H](O[C@H]3[C@H](O)[C@@H](O)C(O)O[C@@H]3CO)[C@@H]2O)O[C@H](CO)[C@@H](O[C@@H]2O[C@H](CO)[C@H](O)[C@H](O)[C@H]2O)[C@@H]1O` (mixture of isomers) [LNnT, lacto-N-neotetraose] has a Kd (ILY) of 4.9 µM, a Kd (SLO [1]) of 0.93 nM and a Kd (PFO) of 2.8 µM.
Work on `C[C@@H]1O[C@@H](O[C@H]2C(O)O[C@H](CO)[C@H](O)[C@@H]2O)[C@@H](O)[C@H](O)[C@@H]1O` (stereo partly shown) [BGH di, blood group H antigen disaccharide] yielded a Kd (SLY) of 19 µM, a Kd (SLY D4) of 26 µM and a Kd (SLO [1]) of 603 nM.
`O=C[C@H](O)[C@@H](O)[C@H](O[C@@H]1O[C@H](CO)[C@@H](O)[C@H](O)[C@H]1O)[C@H](O)CO` [Cellobiose] showed a Kd (PFO; KD) of 34 µM.
`CC(C)CCC[C@@H](C)[C@H]1CC[C@H]2[C@@H]3CC=C4C[C@@H](O)CC[C@]4(C)[C@H]3CC[C@]12C` [Cholesterol] showed a Kd (Ply; KD) of 1000 nM, a Kd (SLO [1]; KD) of 189 nM and a Kd (PFO; KD) of 0.296 µM.
In the case of `CC(=O)[C@H]1CC[C@H]2[C@@H]3CC=C4C[C@@H](O)CC[C@]4(C)[C@H]3CC[C@]12C` [pregnenolone], the Kd (Ply) is reported as about 0.4 nM, the “binding in SPR drug library screen” value (Ply) is reported as “binds” and the “binding in SPR drug library screen” value (SLO [1]) is reported as “binds”.
With `CC(=O)N[C@H]1[C@H]([C@H](O)[C@H](O)CO)O[C@@](O[C@H]2[C@@H](O)[C@@H](CO)O[C@@H](O[C@@H]([C@H](O[C@@H]3O[C@@H](C)[C@@H](O)[C@@H](O)[C@@H]3O)[C@H](C=O)NC(C)=O)[C@H](O)CO)[C@@H]2O)(C(=O)O)C[C@@H]1O` [sLeX, sialyl-Lewis X] the Kd (ILY; KD) was 2.8 µM, the Kd (Ply; KD) was 1300 nM and the Kd (SLO [1]; KD) was 3100 nM. It also gave a Kd (PFO; KD) of 3.9 µM.
In the case of “Ply: pneumolysin, CDC toxin from Streptococcus pneumoniae, recombinant His-tagged”, the Kd [2] is reported as 22.3 nM.
In the case of pregnenolone sulfate (sodium salt) [PS], the “competition with cholesterol (competitive SPR)” value (from here on “competition with cholesterol”) (LLO) is reported as “compete directly”, the “competition with cholesterol” value (Ply) is reported as “compete directly” and the “competition with cholesterol” value (SLO [1]) is reported as “compete directly”. For the same compound, the “effect on SLO hemolytic activity” value (SLO [3]) was “inhibit”.
